Test results: the supplement of paper PMC9663587

Tests used:
THZ531 = compound: CN(C)C/C=C/C(=O)Nc1ccc(C(=O)N2CCC[C@@H](Nc3ncc(Cl)c(-c4c[nH]c5ccccc45)n3)C2)cc1 [THZ531]; assay: increase in dead-cell fraction, 72 h; higher = more death;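 further: breast cancer cell lines in 384-well plates, stained with Hoechst plus LIVE/DEAD far red dye and imaged, cells above an LDR intensity threshold counted dead, Hoechst-negative corpses included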
YKL-5-124 [1] = compound: T1, C=CC(=O)Nc1ccc(C(=O)Nc2[nH]nc3c2CN(C(=O)N[C@H](CN(C)C)c2ccccc2)C3(C)C)cc1 [YKL-5-124]; assay: as above
Topotecan = compound: CC[C@@]1(O)C(=O)OCc2c1cc1n(c2=O)Cc2cc3c(CN(C)C)c(O)ccc3nc2-1 [Topotecan]
Bleomycin = compound: CC1=C(N=C(N=C1N)[C@H](CC(=O)N)NC[C@@H](C(=O)N)N)C(=O)N[C@@H]([C@H](C2=CN=CN2)OC3C(C(C(C(O3)CO)O)O)OC4C(C(C(C(O4)CO)O)OC(=O)N)O)C(=O)N[C@H](C)[C@H]([C@H](C)C(=O)N[C@@H]([C@@H](C)O)C(=O)NCCC5=NC(=CS5)C6=NC(=CS6)C(=O)NCCC[S+](C)C)O [Bleomycin]; settings: main component drawn
YKL-5-124 [2] = compound: T1, YKL-5-124
Everolimus = compound: CO[C@H]1C[C@@H]2CC[C@@H](C)[C@@](O)(O2)C(=O)C(=O)N2CCCC[C@H]2C(=O)O[C@H]([C@H](C)C[C@@H]2CC[C@@H](OCCO)[C@H](OC)C2)CC(=O)[C@H](C)/C=C(\C)[C@@H](O)[C@@H](OC)C(=O)[C@H](C)C[C@H](C)/C=C/C=C/C=C/1C [Everolimus]
Etoposide = compound: COc1cc([C@@H]2c3cc4c(cc3[C@@H](O[C@@H]3O[C@@H]5CO[C@@H](C)O[C@H]5[C@H](O)[C@H]3O)[C@H]3COC(=O)[C@H]23)OCO4)cc(OC)c1O [Etoposide]
Cisplatin = compound: N.N.Cl[Pt]Cl [Cisplatin]
[3] = compound: COc1cccc(OCCCN)c1-c1cc(Nc2cnc(C#N)cn2)n[nH]1
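Wherever GR50, 72 h is given: breast cancer and non-malignant breast epithelial cell lines, Deep Dye Drop or Dye Drop imaging, nine half-log doses, GR normalized to time-zero plates and DMSO-only controls.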

Row | Cell Line | increase in dead-cell fraction (THZ531; 0.0001 µM) | increase in dead-cell fraction (THZ531; 0.0003162 µM) | increase in dead-cell fraction (THZ531; 0.001 µM) | increase in dead-cell fraction (THZ531; 0.003162 µM) | increase in dead-cell fraction (THZ531; 0.01 µM) | increase in dead-cell fraction (THZ531; 0.03162 µM) | increase in dead-cell fraction (THZ531; 0.1 µM) | increase in dead-cell fraction (THZ531; 0.3162 µM) | increase in dead-cell fraction (THZ531; 1 µM) | increase in dead-cell fraction (YKL-5-124 [1]; 0.001 µM) | increase in dead-cell fraction (YKL-5-124 [1]; 0.003162 µM) | increase in dead-cell fraction (YKL-5-124 [1]; 0.01 µM) | increase in dead-cell fraction (YKL-5-124 [1]; 0.03162 µM) | increase in dead-cell fraction (YKL-5-124 [1]; 0.1 µM) | increase in dead-cell fraction (YKL-5-124 [1]; 0.3162 µM) | increase in dead-cell fraction (YKL-5-124 [1]; 1 µM) | increase in dead-cell fraction (YKL-5-124 [1]; 3.162 µM) | increase in dead-cell fraction (YKL-5-124 [1]; 10 µM) | GR50, 72 h (Topotecan) [µM] | GR50, 72 h (Bleomycin) [µM] | GR50, 72 h (YKL-5-124 [2]) [µM] | GR50, 72 h (Everolimus) [µM] | GR50, 72 h (Etoposide) [µM] | GR50, 72 h (Cisplatin) [µM] | GR50, 72 h [3] [µM]
1 | HCC1806 | 0.0006 | 0.001 | 0.0004 | -0.0016 | -0.0015 | 0.0016 | 0.0014 | 0.0179 | 0.586 | 0.0531 | 0.0858 | 0.134 | 0.202 | 0.196 | 0.264 | 0.331 | 0.322 | 0.538 | 0.00527 | 8.98 | < 0.001 | > 10 | 0.0964 | 0.833 | –
2 | MCF7 | 0.0003 | -0.0011 | 0.0038 | -0.0013 | 0.0059 | 0.0084 | 0.125 | 0.185 | 0.355 | 0.0137 | 0.0144 | 0.0219 | 0.0284 | 0.0263 | 0.0411 | 0.0356 | 0.039 | 0.203 | 0.00604 | 0.0772 | < 0.001 | 0.00269 | 0.135 | 9.32 | –
3 | PDX1328 | -0.0004 | -0.0097 | 0.0015 | 0 | 0.003 | -0.0033 | 0.0477 | 0.199 | 0.186 | 0.0057 | 0.0011 | 0.0128 | 0.0082 | 0.0045 | 0.0085 | 0.0121 | 0.0229 | 0.0663 | 0.00592 | 4 | – | – | 0.805 | 0.784 | 0.000974
4 | HCC1954 | 0.0002 | 0.0055 | 0.0013 | 0.0058 | 0.0048 | 0.004 | 0.0127 | 0.0525 | 0.42 | 0.076 | 0.0781 | 0.11 | 0.0779 | 0.129 | 0.104 | 0.102 | 0.0854 | 0.15 | 0.0119 | 0.0438 | < 0.001 | – | 0.171 | 1.25 | –
5 | SUM229PE | 0.0065 | 0.0019 | -0.0006 | 0.0039 | -0.0022 | -0.005 | -0.0018 | 0.0175 | 0.0884 | 0.0368 | 0.0432 | 0.0321 | 0.0316 | 0.0267 | 0.0384 | 0.0161 | 0.0213 | 0.0246 | – | – | < 0.001 | > 10 | – | – | 0.00707
6 | HCC70 | -0.0083 | 0.004 | -0.0113 | -0.0062 | -0.0005 | 0.0092 | 0.227 | 0.623 | 0.805 | 0.0881 | 0.0945 | 0.148 | 0.205 | 0.254 | 0.285 | 0.376 | 0.41 | 0.726 | 0.00946 | 0.398 | < 0.001 | 0.245 | 0.365 | 1.32 | –
7 | MDAMB157 | – | – | – | – | – | – | – | – | – | – | – | – | – | – | – | – | – | – | 0.00595 | 1.29 | – | > 10 | 0.112 | 5.24 | –
8 | SUM190PT | -0.0012 | 0.0006 | 0.0192 | 0.0068 | -0.0033 | 0.0143 | 0.0893 | 0.636 | 0.44 | 0.0072 | 0.0099 | 0.0098 | 0.0132 | 0.005 | 0.0169 | 0.0033 | 0.0008 | 0.244 | – | – | < 0.001 | 0.00331 | – | – | 0.00042
9 | PDXHCI002 | -0.0252 | -0.029 | -0.0123 | 0.0054 | 0.0146 | 0.0278 | 0.241 | 0.379 | 0.263 | 0.156 | 0.144 | 0.185 | 0.172 | 0.186 | 0.234 | 0.186 | 0.255 | 0.182 | 0.00665 | 1.16 | < 0.001 | > 10 | 0.182 | 1.73 | –
10 | HCC1500 | – | – | – | – | – | – | – | – | – | – | – | – | – | – | – | – | – | – | 0.00546 | 2.28 | – | – | 1.43 | 3.45 | –
11 | HCC1428 | – | – | – | – | – | – | – | – | – | – | – | – | – | – | – | – | – | – | 0.0106 | 4.26 | – | 0.031 | 0.214 | 0.901 | –
12 | T47D | -0.0029 | 0.0085 | -0.0033 | 0.0028 | -0.0045 | 0.0014 | 0.01 | 0.035 | 0.0357 | 0.0113 | 0.0129 | 0.0177 | 0.0322 | 0.0269 | 0.0156 | 0.0308 | 0.0206 | 0.0574 | 0.00523 | 0.199 | < 0.001 | < 0.001 | 0.0417 | 1.57 | –
13 | MCF10A | -0.0006 | -0.0007 | 0.0006 | -0.0006 | -0.0015 | 0.0007 | 0.0013 | 0.0057 | 0.795 | 0.0412 | 0.118 | 0.138 | 0.146 | 0.116 | 0.149 | 0.159 | 0.118 | 0.167 | 0.00987 | 0.177 | < 0.001 | > 10 | 0.284 | 4.29 | –
14 | SUM52PE | -0.0007 | 0.0017 | -0.0005 | -0.0003 | -0.0005 | 0.0015 | 0.0054 | 0.0857 | 0.311 | 0.0072 | 0.0054 | 0.0099 | 0.0108 | 0.013 | 0.0189 | 0.009 | 0.0202 | 0.0275 | – | – | 0.0453 | > 10 | – | – | 0.00264
15 | HS578T | 0.0179 | 0.0236 | -0.0057 | 0.0346 | -0.004 | 0.0086 | 0.182 | 0.2 | 0.283 | 0.0377 | 0.0487 | 0.0429 | 0.127 | 0.139 | 0.155 | 0.13 | 0.125 | 0.492 | 0.00498 | 0.252 | < 0.001 | 0.00554 | 0.413 | 1.54 | –
